Measurements as given in US20210137941A1 (ZARODEX THERAPEUTICS LIMITED, priority 2018, published 2021).
Where “and” joins values, the source holds several entries; their conditions need not be identical. Equal entries are not always repeated. Entries after “also recorded” stand apart in the source; their conditions may differ.

Key:
[1] = test system: Immunoglobulin levels (IgG, IgA and IgM); assay: First observational study: serum immunoglobulin levels by nephelometry, clozapine vs clozapine-naive patients; assay type: in vivo, human
[2] = in vivo; cited from earlier work
[3] = test system: IgG to Haemophilus influenza B, Pneumococcus and Tetanus; details: human, in vivo
[4] = treatment-resistant schizophrenia; cited from earlier work
[5] = test system: Immunoglobulin levels (IgG, IgA and IgM); assay: Referred clozapine patients (Immunology clinic): serum immunoglobulins; assay type: in vivo, human
[6] = sub-group A: all diagnoses, all smoking, possible secondary causes not excluded, n=123
[7] = sub-group A: all diagnoses, all smoking, possible secondary causes not excluded, n=123, listed as clozapine
[8] = sub-group B: all diagnoses, all smoking, possible secondary causes excluded, n=94
[9] = sub-group C: schizophrenia diagnoses only, secondary causes excluded, n=87
[10] = sub-group D: smokers only, secondary causes excluded, n=57
[11] = 13 referred patients on clozapine
[12] = 13 referred patients, clozapine 200-750 mg, duration >4 to 21 years (two had stopped), one line per patient

CN1CCN(C2=Nc3cc(Cl)ccc3Nc3ccccc32)CC1 [Clozapine, clozapine]
% of patients with Serum IgM <0.3 g/L ([1]; human, in vivo): 12.3%
concentrations/distribution of IgG, IgA and IgM vs clozapine-naive control group ([1]; human, in vivo): significantly reduced concentrations; also recorded: leftward shift
association of longer duration of therapy with serum IgG ([1]; p 0.014, not observed with alternative antipsychotic drugs, FIG. 2): lower serum IgG levels
% of patients with Serum IgA <0.5 g/L (Reference range 0.8-4.0 g/L) [1, 6]: 1.6%
% of patients with Serum IgA <0.6 g/L [1, 6]: 2.4%
% of patients with Serum IgA <0.7 g/L [1, 6]: 6.5%
% of patients with Serum IgA <0.8 g/L (below reference range) [1, 6]: 13.0%
% of patients with Serum IgG <3 g/L (Reference range 6-16 g/L) [1, 6]: 0.8%
% of patients with Serum IgG <4 g/L [1, 6]: 1.6%
% of patients with Serum IgG <5 g/L [1, 6]: 3.3%
% of patients with Serum IgG <6 g/L (below reference range) [1, 6]: 9.8%
% of patients with Serum IgM <0.2 g/L (Reference range 0.5-1.9 g/L) [1, 6]: 8.1%
% of patients with Serum IgM <0.3 g/L [1, 6]: 16.3%
% of patients with Serum IgM <0.4 g/L [1, 6]: 29.3%
% of patients with Serum IgM <0.5 g/L (below reference range) [1, 6]: 38.2%
% of patients with Serum IgA <0.8 g/L (below reference range) [1, 7]: 13.0% and 13.1%
% of patients with Serum IgG <6 g/L (below reference range) [1, 7]: 9.8%
% of patients with Serum IgM <0.5 g/L (below reference range) [1, 7]: 38.2%
% of patients with Serum IgA <0.5 g/L (Reference range 0.8-4.0 g/L) [1, 8]: 2.1%
% of patients with Serum IgA <0.6 g/L [1, 8]: 2.1%
% of patients with Serum IgA <0.7 g/L [1, 8]: 6.4%
% of patients with Serum IgA <0.8 g/L (below reference range) [1, 8]: 13.8%
% of patients with Serum IgG <3 g/L (Reference range 6-16 g/L) [1, 8]: 1.1%
% of patients with Serum IgG <4 g/L [1, 8]: 1.1%
% of patients with Serum IgG <5 g/L [1, 8]: 2.1%
% of patients with Serum IgG <6 g/L (below reference range) [1, 8]: 8.4%
% of patients with Serum IgM <0.2 g/L (Reference range 0.5-1.9 g/L) [1, 8]: 5.3%
% of patients with Serum IgM <0.3 g/L [1, 8]: 12.8%
% of patients with Serum IgM <0.4 g/L [1, 8]: 26.6%
% of patients with Serum IgM <0.5 g/L (below reference range) [1, 8]: 34.0%
% of patients with Serum IgA <0.5 g/L (Reference range 0.8-4.0 g/L) [1, 9]: 2.3%
% of patients with Serum IgA <0.6 g/L [1, 9]: 3.5%
% of patients with Serum IgA <0.7 g/L [1, 9]: 6.9%
% of patients with Serum IgA <0.8 g/L (below reference range) [1, 9]: 14.9%
% of patients with Serum IgG <3 g/L (Reference range 6-16 g/L) [1, 9]: 1.2%
% of patients with Serum IgG <4 g/L [1, 9]: 1.2%
% of patients with Serum IgG <5 g/L [1, 9]: 2.3%
% of patients with Serum IgG <6 g/L (below reference range) [1, 9]: 9.2%
% of patients with Serum IgM <0.2 g/L (Reference range 0.5-1.9 g/L) [1, 9]: 5.8%
% of patients with Serum IgM <0.3 g/L [1, 9]: 12.6%
% of patients with Serum IgM <0.4 g/L [1, 9]: 27.6%
% of patients with Serum IgM <0.5 g/L (below reference range) [1, 9]: 35.6%
% of patients with Serum IgA <0.5 g/L (Reference range 0.8-4.0 g/L) [1, 10]: 3.5%
% of patients with Serum IgA <0.6 g/L [1, 10]: 3.5%
% of patients with Serum IgA <0.7 g/L [1, 10]: 3.5%
% of patients with Serum IgA <0.8 g/L (below reference range) [1, 10]: 10.5%
% of patients with Serum IgG <3 g/L (Reference range 6-16 g/L) [1, 10]: 1.8%
% of patients with Serum IgG <4 g/L [1, 10]: 1.8%
% of patients with Serum IgG <5 g/L [1, 10]: 1.8%
% of patients with Serum IgG <6 g/L (below reference range) [1, 10]: 8.8%
% of patients with Serum IgM <0.2 g/L (Reference range 0.5-1.9 g/L) [1, 10]: 1.78%
% of patients with Serum IgM <0.4 g/L [1, 10]: 26.3%
% of patients with Serum IgM <0.5 g/L (below reference range) [1, 10]: 33.3%
LD50 [2]: 200 mg/kg
individuals failing to develop a pneumococcal IgG response above 50 mg/L [3]: 73%
individuals failing to exceed 0.1 IU/mL post-vaccination Tetanus-IgG level [3]: 1/12
individuals failing to mount a Haemophilus-IgG response of at least 1 mcg/ml [3]: 42%
patients with IgG to Haemophilus influenza B (HiB) <1 mcg/ml [3]: 75%
patients with Pneumococcus-IgG <50 mg/L [3]: 94%
patients with Tetanus-IgG <0.1 IU/mL [3]: 38%
patients with impaired responses to vaccination [3]: 10/11
vaccine response, individual referred patients [3]: Failure to responds to; also recorded: Non-durable
previously treatment refractive patients in whom effective [4]: approximately 60%
mean IgA, referred patients [5, 11]: 0.34 g/L
mean IgG, referred patients [5, 11]: 3.6 g/L
mean IgM, referred patients [5, 11]: 0.21 g/L
serum IgA, individual referred patients [5, 12]: IgA 0.54 g/L and <0.22 g/L (6×) and IgA 0.49 g/L and IgA 0.38 g/L and undetect- and IgA 0.26 g/L and IgA 0.81 g/L and IgA 0.63 g/L
serum IgG, individual referred patients [5, 12]: IgG 4.8 g/L and <1.34 g/L (2×) and IgG 5.24 g/L and IgG 2.68 g/L and IgG 2.98 g/L and IgG 1.2 g/L and IgG 3.3 g/L and IgG 2.38 g/L and IgG 4.24 g/L and IgG 6.65 g/L and IgG 5.61 g/L and IgG 4.79 g/L
serum IgM, individual referred patients [5, 12]: IgM 0.3 g/L and <0.17 g/L (7×) and 0.41 g/L (2×) and 0.23 g/L and 0.07 g/L and 0.18 g/L
serum IgG, individual referred patients ([5]; 13 referred patients, clozapine 200-750 mg, duration >4 to 21 years (two had stopped), one line per patient, listed as clozapine): 3.3 g/L
serum IgG post-discontinuation of clozapine ([5]; FIG. 5, gradual recovery over 3 years): 5.95 g/L
serum IgG at discontinuation of clozapine ([5]; FIG. 5, start of recovery): 3.5 g/L
IgA and IgM following cessation of clozapine ([5]; FIG. 5 / one patient over 24 months): without clear improvement; also recorded: remained low
serum IgM after stopping clozapine ([5]; one patient, 24 months after clozapine cessation): 0.49 after 24 months
serum IgG after stopping clozapine, intermediate value ([5]; one patient, within 24 months after cessation): 4.8 g/L
